For assay [1], the system named is ovarian cancer cell lines (A2780). The assay can be described thus: In vitro cytotoxicity, SRB assay, ovarian cancer A2780. It counts as cell-based, human. Conditions: Ovarian A2780; 48 hrs continuous drug exposure, SRB; read-out: GI50. The text has this: (§1) The C8-linked benzylidineanthracenone-PBD hybrids have been tested against eight human tumor cell lines derived from seven cancer types (breast, ovarian, colon, prostate, cervix, lung and oral cancer). For each compound, dose response curves for individual cell lines have been measured at a minimum of five concentrations at 10 fold dilutions. A protocol of 48 hrs continuous drug exposure has been used, and a sulforhodamine B (SRB) protein assay was used to estimate cell viability or growth. The results are expressed as percent of cell growth determined relative to that of untreated control cells. The GI50 values are the concentration for 50% cell growth inhibition (GI50) compared with the control has been calculated.
On the technique in general: The SRB assay estimates cell density from bound dye.

Assay [2] concerns breast cancer cell lines (MCF7). In words: In vitro cytotoxicity, SRB assay, breast cancer MCF7. It counts as cell-based, human. Conditions: Breast MCF7; 48 hrs continuous drug exposure, SRB; read-out: GI50.
Source text: as §1

For assay [3], the system named is cervix cancer cell lines (SiHa). The assay can be described thus: In vitro cytotoxicity, SRB assay, cervix cancer SiHa. It counts as cell-based, human. Conditions: Cervix SiHa; 48 hrs continuous drug exposure, SRB; read-out: GI50.
Source text: as §1

In assay [4] the test system is colon cancer cell lines (Colo205). In words: In vitro cytotoxicity, SRB assay, colon cancer Colo205. It counts as cell-based, human. Conditions: Colon Colo205; 48 hrs continuous drug exposure, SRB; read-out: GI50.
Source text: as §1

The subject of assay [5] is oral cancer cell lines (KB). In words: In vitro cytotoxicity, SRB assay, oral cancer KB. Conditions: Oral KB; 48 hrs continuous drug exposure, SRB; read-out: GI50. It counts as cell-based, human.
Source text: as §1

Assay [6] concerns lung cancer cell lines (A549). In words: In vitro cytotoxicity, SRB assay, lung cancer A-549. It counts as cell-based, human. Conditions: Lung A-549; 48 hrs continuous drug exposure, SRB; read-out: GI50.
Source text: as §1

Assay [7] deals with prostate cancer cell lines (PC3). In words: In vitro cytotoxicity, SRB assay, prostate cancer PC-3. It counts as cell-based, human. Conditions: Prostate PC-3; 48 hrs continuous drug exposure, SRB; read-out: GI50.
Source text: as §1

For assay [8], the system named is lung cancer cell lines (HoP62). In words: In vitro cytotoxicity, SRB assay, lung cancer Hop62. Conditions: Lung Hop62; 48 hrs continuous drug exposure, SRB; read-out: GI50. It counts as cell-based, human.
Source text: as §1

In assay [9] the test system is duplex-form calf thymus DNA (CT-DNA). The assay can be described thus: Thermal denaturation studies with calf thymus DNA. It counts as binding. Conditions: [PBD]:[DNA] molar ratio 1:5, CT-DNA 100 μM, ligand 20 μM, pH 7.00. How it is done:
Compounds were subjected to thermal denaturation studies with duplex-form calf thymus DNA (CT-DNA) using an adaptation of a reported procedure. Working solutions in aqueous buffer (10 mM NaH2PO41Na2HPO4, 1 mM Na2EDTA, pH 7.00±0.01) containing CT-DNA (100 μm in phosphate) and the PBD (20 μm) were prepared by addition of concentrated PBD solutions in DMSO to obtain a fixed [PBD]/[DNA] molar ratio of 1:5. The DNA-PBD solutions were incubated at 37° C. for 0, 18, and 36 h prior to analysis. Samples were monitored at 260 nm using a Beckman DU-7400 spectrophotometer fitted with high performance temperature controller, and heating was applied at 1° C. min^−1 in the 40-90° C. range. DNA helix→coil transition temperatures (Tm) were obtained from the maxima in the d(A260)/dT derivative plots. Results are given as the mean±standard deviation from three determinations and are corrected for the effects of DMSO co-solvent using a linear correction term. Drug-induced alterations in DNA melting behaviour are given by: ΔTm=Tm(DNA+PBD)−Tm (DNA alone), where the Tm value for the PBD-free CT-DNA is 69.0±0.01.
For a 1:5 molar ratio of [PBD]/[DNA], where CT-DNA concentration=100 μM and ligand concentration=20 μM in aqueous sodium phosphate buffer [10 mM sodium phosphate+1 mM EDTA, pH 7.00±0.01]. The ΔTm for PBD hybrids 5b, 5c, 5d, 5h, 5m and 5r at a [PBD]:[DNA] molar ratio of 1:5 increased to a value of 7.5° C., 9.3° C., 8.9° C., 8.0° C., 7.1° C., and 8.4° C. after 18 h incubation respectively.

By GI50 is commonly meant the concentration at which growth is held to half of that of the control.

Take `COc1cc2c(cc1O)N=CC1CCCN1C2=O` (stereo not shown) [DC-81, reference compound]: the 50% growth inhibitory concentration (GI50) in assay [1] turned out to be 150 nM; in [2] it was 2190 nM; in assay [3], 170 nM; in assay [4], 120 nM; in assay [5], 200 nM; in assay [6] it was 380 nM. The concentration for 50% growth inhibition (GI50) in [7] is 200 nM; in assay [8], 150 nM. The “ΔTm, drug-induced shift in DNA melting temperature” value was 0.3 °C in assay [9] (0 h incubation at 37° C.) and 0.7 °C in [9] (18 h incubation at 37° C.).

The values above are taken from patent US8318726B2, “Benzylidineanthracenone linked pyrrolobenzodiazepine hybrids useful as anticancer agents and process for the preparation thereof” (Council of Scientific & Industrial Research, priority 2010, dated 2012).
